Assay results taken from patent US20140314787A1, “Treatment for neurodegenerative diseases” (NOVARTIS FORSCHUNGSSTIFTUNG, ZWEIGNIEDERLASSUNG, FRIEDRICH …, priority 2011, published 2014).

Tests used:
[1] = system: FSOD mice (mutant SOD1(G93A)); experiment: climb test of motor performance in FSOD mice; type: in vivo; conditions: for motor performance: figure legend (FIG. 9, FIG. 10)
Method: Climb test: Neurodegenerative status of the mice was tested using a climb test device developed by some of the inventors. This device is based on a flappable wire meshwork platform (10×10 cm) suspended from one corner by a rigid boom. The platform is suspended about 40 cm above a surface. The platform is fully open and the test is performed in ambient light. During the test, mice are prevented of climbing the boom by a transparent plastic disk. For the performance of the test, mice were gently transferred to the platform and allowed to explore it for 2 minutes. […] As soon as the mice reached the upper surface of the grid (all four limbs on the same side), the grid was gently flipped over so that the mice were not be allowed to rest. The number of performed climbs in the test period was counted, the test period being 11 minutes (5 min and 30 min variants have been tested as well). The climb movement to be performed by the mice involves a forceful yet brief push with fore- and hind-limbs, thus mimicking short-lived but powerful movements that are known to recruit fast motoneurons.
At day P27, mice were treated either with Eer-I (1 μg/g in 150 mM NaCl, s.c., daily) or with saline. Mice were tested at P29 and at P32.
On day P47 treatment was stopped and the mice were tested 2 days later.
Treatment dose was 1 μg/g in 150 mM NaCl, s.c., daily. Mice were treated and tested at baseline (p32), and thereafter tested in the climb test at 38, 43, 56 days of age.

VCP [2] = target: T1, VCP (Homo sapiens, UniProt P55072); conditions: literature (Wang Q et al. 2008, 2010); cited from earlier work
T1 sequence (P55072 whole entry): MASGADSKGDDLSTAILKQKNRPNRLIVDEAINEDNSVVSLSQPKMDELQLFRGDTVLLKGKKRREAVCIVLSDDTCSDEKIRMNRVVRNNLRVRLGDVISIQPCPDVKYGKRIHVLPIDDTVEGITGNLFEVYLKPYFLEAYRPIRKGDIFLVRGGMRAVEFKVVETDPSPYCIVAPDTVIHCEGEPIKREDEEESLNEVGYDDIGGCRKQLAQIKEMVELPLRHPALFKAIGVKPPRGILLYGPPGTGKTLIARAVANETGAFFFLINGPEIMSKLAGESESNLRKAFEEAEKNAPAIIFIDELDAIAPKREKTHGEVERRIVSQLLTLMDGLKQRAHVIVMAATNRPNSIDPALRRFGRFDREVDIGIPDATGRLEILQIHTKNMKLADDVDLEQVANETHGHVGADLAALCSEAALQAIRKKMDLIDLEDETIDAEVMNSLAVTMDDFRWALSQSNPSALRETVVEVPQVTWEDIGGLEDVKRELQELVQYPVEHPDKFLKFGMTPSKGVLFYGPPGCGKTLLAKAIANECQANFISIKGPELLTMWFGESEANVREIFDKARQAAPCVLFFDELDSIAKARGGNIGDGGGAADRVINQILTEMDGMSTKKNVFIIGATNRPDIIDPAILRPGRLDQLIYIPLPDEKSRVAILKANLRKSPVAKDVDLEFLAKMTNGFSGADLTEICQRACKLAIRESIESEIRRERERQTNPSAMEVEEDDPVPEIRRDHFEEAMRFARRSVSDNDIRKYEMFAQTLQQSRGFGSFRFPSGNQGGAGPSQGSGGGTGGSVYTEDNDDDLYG

[3] = system: Mutant SOD1(G93A) transgenic mice; experiment: survival of mutant SOD1(G93A) transgenic mice; type: in vivo
Method: Survival was determined up to the day of death or euthanasia (according to the termination criteria of a righting time >30 sec).

[4] = system: FSOD mice (mutant SOD1(G93A)); experiment: grid test of motor performance / muscle strength in FSOD mice; type: in vivo
Method: Motor performance was assessed by grid test, a standard task for the quantification of muscle strength and neurological impairment.

[5] = body weight recording in treated mice; type: in vivo
Method: Body weight was recorded at P45, P65, P85 and then at 5-7 days intervals. Five mice per group were followed, representative individuals are shown.

VCP [6] = experiment: VCP immunostaining intensity in lumbar spinal cord motoneurons; type: in vivo, mice
Method: After washing in PBS, lumbar (L2-L5) spinal cord was cryoprotected overnight in 30% sucrose. Lumbar spinal cord was embedded in OCT and sectioned at 50 μm. Sections were blocked in PBS-3% BSA −0.3% Triton X 100, and incubated double-overnight at 4 C in the same buffer plus anti VCP monoclonal antibody (Affinity Bioreagents) diluted 1:10,000 and polyclonal anti VAChT (Sigma) 1:1000. Sections were then briefly washed with PBS and incubated for 120 min at RT with goat-anti-rabbit (Alexa 647, Invitrogen) or goat-anti-mouse (Alexa 488, Invitrogen). Confocal images were acquired using an Zeiss LSM700 microscope, fitted with a 20×air objective. Images were processed using Imaris software. For the analysis of VCP labeling intensities, data were acquired with identical confocal settings, ensuring that signals at the brightest cells were not saturated, and that background levels outside clusters were still detectable. Images were then analyzed quantitatively using Image-Pro 5 software (Media Cybernetics). Signal intensities were acquired within areas inside cells, excluding areas lacking signal; background levels outside cells were subtracted from these values.

VCP [7] = target: T1, VCP; conditions: literature (Chou T F et al. 2011); cited from earlier work
[8] = FSOD mice treated from P20, s.c. daily
[9] = FSOD mice treated from P63, s.c. daily
[10] = 1 μg/g s.c. daily from weaning (P20), vs untreated

With `CC1(C)C(N(O)C(=O)Nc2ccc(Cl)cc2)N(c2ccc(Cl)cc2)C(=O)N1CC(=O)NN=CC=Cc1ccc([N+](=O)[O-])o1` (stereo not shown) [Eer-I, 3-(4-Chlorophenyl)-4-[[[(4-chlorophenyl)amino]carbonyl]hydroxyamino]-5,5-dimethyl-2-oxo-1-imidazolidineacetic acid 2-[3-(5-nitro-2-furanyl)-2-propen-1-ylidene]hydrazide] the climb performance ([1]; FSOD mice (n=4), 1 μg/g s.c. daily from P18, tested at P27, P37 and P47) was “comparable to wt mice”, the “climb performance upon resumption of the treatment” value ([1]; FSOD mice (n=4), after withdrawal) was “quickly improved” and the “treatment time until performance comparable with that before withdrawal” value ([1]; FSOD mice (n=4), resumption of treatment after withdrawal) was 2 to 5 days. For the same compound, the “climb performance after 2 days of withdrawal of treatment” value ([1]; FSOD mice (n=4), treatment stopped on P47, tested at P49) was “sharp drop in performance, down to a level comparable with that of untreated FSOD mice of the same age”, the “climb test performance (climb scores)” value [1, 8] was “markedly preserved performance, with climb scores comparable with WT mice” and the “duration of stable climb test performance” value [1, 8] was “stable up to day P65”. For the same compound, the “climb score at day P85” value [1, 9] was “returning in the range of untreated FSOD mice”, the climb test performance [1, 9] was “marked but transient improvement in performance” and the “increase of climb score” value [1, 9] was “up to four-fold”. For the same compound, the “climb test performance after 5 days of treatment” value ([1]; FSOD mice, 1 μg/g s.c. daily from P27) was “level comparable with wt”, the climb test performance ([1]; FSOD mice, 1 μg/g s.c. daily from P27, tested at P29 and P32, vs saline) was “marked improvement in performance” and the “performance in the climb test” value ([1]; FSOD mice, FIG. 4 legend) was “markedly improve”. For the same compound, the “performance in the climb test” value ([1]; FSOD mice, FIG. 7 legend) was “quickly restores performance”, the “degradation of target misfolded proteins whose translocation and disposal is dependent upon VCP” value (VCP [2]) was “prevent the degradation of target misfolded proteins” and the “survival vs untreated mutant mice” value ([3]; 1 μg/g s.c. daily since weaning (P20), n=7 per group) was “survived significantly longer”. The survival ([3]; FSOD mice, FIG. 6 legend) was “prolongs FSOD mice survival”, the “grid test performance soon after beginning of treatment” value ([4]; 1 μg/g s.c. daily from P63) was “fast improvement in performance” and the “grid test performance vs untreated counterparts” value ([4]; 1 μg/g s.c. daily from P63) was “performed significantly better than their untreated counterparts”. For the same compound, the “decline in muscle strength over time (grid test)” value [4, 10] was “significantly slower decline”, the “grid test performance at the earliest time point” value [4, 10] was “better performance” and the motor disability ([4]; FIG. 3 legend) was “delays motor disability”. The body weight loss ([5]; FIG. 5 legend) was “delays body weight loss”, the “bodyweight of FSOD mice” value ([5]; 1 μg/g s.c. daily from P63) was “stabilized at a level lower than the littermates treated from weaning” and the “bodyweight of FSOD mice” value ([5]; 1 μg/g s.c. daily from weaning (P20)) was “stable bodyweight until day P140-145”. The “body weight of wild type mice” value ([5]; wild type mice, 1 μg/g s.c. daily) was “expected progressive increase in body weight”, the “overt toxicity of the treatment” value ([5]; wild type mice, 1 μg/g s.c. daily, from body weight) was “lack of overt toxicity” and the “average cytoplasmic VCP staining intensity in motoneurons” value (VCP [6]; FSOD mice treated with Eer-I vs FSOD and WT controls, lumbar spinal cord) was “significantly reduced (to an extent comparable with WT)”. For the same compound, the VCP upregulation (VCP [6]; FSOD mice, FIG. 11 legend) was “reverses VCP upregulation”.
For `c1ccc(CNc2nc(NCc3ccccc3)c3ccccc3n2)cc1` [DBEQ, N^2,N^4-Dibenzylquinazoline-2,4-diamine], the motor performance ([1]; FSOD mice) is given as “improves motor performance”, the “motor performance in the climb test” value ([1]; three FSOD mice, 1 μg/g s.c. daily after day 29, tested at P31, P34, 37 and 45) is given as “progressive improvement in motor performance reaching the range of wt mice” and the “VCP inhibition (mode)” value (VCP [7]) is given as “reversible, ATP-competitive direct VCP inhibitor”.
In the case of `O=[N+]([O-])C=Cc1ccc2c(c1)OCO2` [Syk-inhibitor III, 3,4-Methylenedioxy-β-nitrostyrene], the motor performance ([1]; FSOD mice) is given as “improves motor performance”, the “performance in the climb test” value ([1]; two mice, 1 μg/g s.c. daily, baseline p32, tested at 38, 43, 56 days of age) is given as “markedly improved and reached the range of performance for WT mice” and the “VCP inhibition (mode)” value (VCP [7]) is given as “substantial efficacy as an irreversible inhibitor of the D2 ATPase site on VCP”.
